Measured values: PMC8296985, “A Covalent Calmodulin Inhibitor as a Tool to Study Cellular Mechanisms of K-Ras-Driven Stemness” (Frontiers in Cell and Developmental Biology, 2021)
Where two headings read alike, the source gives them in different places.

How the values were obtained:
MDA-MB-231 = assay: 3D spheroid (tumorosphere) formation assay, low attachment, serum-free, alamarBlue; type: cell-based; settings: for IC50: Homo sapiens; for KRAS/HRAS mutant cell line DSS3 ratio: MDA-MB-231 vs Hs 578T 3D spheroid formation, 0.6–40 μM, numbers above bars Fig. 1A,B
Procedure: (§1) 3D spheroid formation assays were performed in 96-well low-attachment, suspension culture plates (cat. no. 655185, Cellstar, Greiner Bio-One) under serum-free condition. About 1,000 (MDA-MB-231, NCI-H358, and MIA PaCa-2) or 2,500 (Hs 578T) cells per well were seeded in 50 μl of either an RPMI medium (cat. no. 52400-025, Gibco, Thermo Fisher Scientific) (MDA-MB-231, A375, and NCI-H358) or DMEM (cat. no. 41965-039, Gibco, Thermo Fisher Scientific) (Hs 578T and MIA PaCa-2), containing 0.5% MethoCult (cat. no. SF H4636, Stemcell technologies), 1x B27 (cat. no. 17504044, Gibco, Thermo Fisher Scientific), 25 ng/ml EGF (cat. no. E9644, Sigma-Aldrich), and 25 ng/ml FGF (cat. no. RP-8628, Thermo Fisher Scientific). Cells were cultured for 3 days and then treated with compounds or vehicle control (DMSO 0.1% v/v in growth medium) for another 3 days. The cells were supplemented with a fresh growth medium on the third day together with the drug treatment. For knockdown experiments, cells were seeded in 12-well plates and treated with either 50 nM scrambled siRNA (cat. no. 1022076, QIAGEN) or indicated concentrations of siRNAs. Next day, cells were collected by trypsinization and re-plated into 96-well plates for 3D spheroid suspension culture.
(§2) Spheroid formation efficiency was analyzed by an alamarBlue assay reagent (cat. no. DAL1100, Thermo Fisher Scientific). A 10% final volume of the alamarBlue reagent was added to each well of the plate and incubated for 4 h at 37°C. Then the fluorescence intensity was measured using the FLUOstar OPTIMA plate reader (BMG Labtech, Germany) with an excitation wavelength of 560 ± 5 nm and an emission wavelength of 590 ± 5 nm.
(§3) To quantitatively profile the drug sensitivity with a more robust parameter than the IC50 or EC50 values, the drug sensitivity score (DSS) analysis was employed. DSS values are essentially normalized area under the curve (AUC) measures of dose-response inhibition data ([Yadav et al., 2014]). Drug response data files (in Excel) ready for online analysis were prepared according to the example file obtained from the DSS pipeline website, called Breeze^1 ([Potdar et al., 2020]). Either raw fluorescence intensity measurements or normalized % inhibition data (for BRET assay analysis) were uploaded.
(§4) DSS3 was employed to emphasize drugs that obtain their response area over a relatively wide dose window, as compared to drugs that show increased response only at the higher end of the concentration range. After logistic fitting of the dose-response inhibition data, the area under the curve (AUC) was determined as the exact solution. A 10% minimal activity threshold (t) was set. The maximum (Cmax) and minimum (Cmin) concentrations were used for screening of the inhibitors, with Cmax = x2 and x1 concentration with minimal activity t.

Hs 578T = assay: as above; type: cell-based; settings: for IC50: Homo sapiens
Procedure: as §1, §2, §3, §4

calmodulin (CaM) = calmodulin (CaM) (Bos taurus, UniProt P62157); assay: Fluorescence polarization assay, displacement of F-PMCA peptide from CaM; settings: for kinact/KI: read-out: k2/Ki second-order rate constant
[1] = 72 h, MDA-MB-231 (K-RasG13D) 3D tumorosphere, 3 days treatment, read-out: IC50
[2] = MDA-MB-231 3D tumorosphere, log scale
[3] = 72 h, Hs 578T (H-RasG12D) 3D tumorosphere, 3 days treatment, read-out: IC50
[4] = Hs 578T 3D tumorosphere, log scale
[5] = MDA-MB-231 3D tumorosphere, log scale, read-out: logIC50 ± SD (converted)
[6] = Hs 578T 3D tumorosphere, log scale, read-out: logIC50 ± SD (converted)

SMILES | IC50 (MDA-MB-231; [1]) [µM] | IC50 (Hs 578T; [3]) [µM] | Kd (calmodulin (CaM)) [µM] | IC50 (MDA-MB-231; [5]) [µM] | IC50 (Hs 578T; [6]) [µM] | Ki (calmodulin (CaM)) [µM] | affinity for CaM relative to OphA (calmodulin (CaM); after 24-h incubation, higher affinity than OphA) [fold] | kinact/KI (calmodulin (CaM)) [M⁻¹ s⁻¹] | Kd ± SD (calmodulin (CaM); CaM-binding affinity after 24-h incubation, F-PMCA probe) | logIC50 ± SD (MDA-MB-231; [2]) | KRAS/HRAS mutant cell line DSS3 ratio (MDA-MB-231) | logIC50 ± SD (Hs 578T; [4])
CC(C)c1ccc2cc(C(F)(F)F)c(=O)c3c(N4CCCC4)c(C=O)c(c1)c23 [Compound 4] | > 40 | > 40 | 39 | – | – | – | – | – | – | Inconclusive | 2.0 | Inconclusive
Cc1c(N2CCN(C)CC2)c2c(=O)c(C(F)(F)F)cc3ccc(C(C)C)cc1c32 [Compound 10] | > 40 | 23.1 | – | – | 22.9 | – | – | – | Inconclusive | Inconclusive | 0.03 | –
Cc1c(N)c2c(=O)c(C(F)(F)F)cc3ccc(C(C)C)cc1c32 [Compound 14] | > 40 | > 40 | 21.4 | – | – | – | – | – | – | Inconclusive | 4.7 | Inconclusive
CC(C)c1ccc2cc(C(F)(F)F)c(=O)c3c(NCCO)c(C=O)c(c1)c23 [Compound 6] | > 40 | > 40 | 31 | – | – | – | – | – | – | Inconclusive | 115.5 | Inconclusive
Cc1c(N2CCC2)c2c(=O)c(C(F)(F)F)cc3ccc(C(C)C)cc1c32 [Compound 12] | > 40 | 8.5 | 6.1 | – | 7.94 | – | – | – | – | Inconclusive | 0.01 | –
Cc1c(NCCO)c2c(=O)c(C(F)(F)F)cc3ccc(C(C)C)cc1c32 [Compound 13] | > 40 | > 40 | 62 | – | – | – | – | – | – | Inconclusive | 14.5 | Inconclusive

Second part, led by results:

IC50 (MDA-MB-231; [1]) [µM] | IC50 (Hs 578T; [3]) [µM] | Kd (calmodulin (CaM)) [µM] | IC50 (MDA-MB-231; [5]) [µM] | IC50 (Hs 578T; [6]) [µM] | Ki (calmodulin (CaM)) [µM] | affinity for CaM relative to OphA (calmodulin (CaM); after 24-h incubation, higher affinity than OphA) [fold] | kinact/KI (calmodulin (CaM)) [M⁻¹ s⁻¹] | Kd ± SD (calmodulin (CaM); CaM-binding affinity after 24-h incubation, F-PMCA probe) | SMILES | logIC50 ± SD (MDA-MB-231; [2]) | KRAS/HRAS mutant cell line DSS3 ratio (MDA-MB-231) | logIC50 ± SD (Hs 578T; [4])
> 40 | > 40 | 45 | – | – | – | – | – | – | CC(C)c1ccc2cc(C(F)(F)F)c(=O)c3c(N)c(C=O)c(c1)c23 [Compound 7] | Inconclusive | 2.2 | Inconclusive
22.8 | 24.9 | 0.23 | 22.9 | 24.5 | 13 | 15 | 25.8 | – | CC(C)c1ccc2cc(C(F)(F)F)c(=O)c3c(N4CCOCC4)c(C=O)c(c1)c23 [Compound 2] | – | 3.3 | –
19.6 | 17.4 | 1.44 | 19.5 | 17.4 | 229 | – | 1.67 | – | Cc1c(N2CCOCC2)c2c(=O)c(C(F)(F)F)cc3ccc(C(C)C)cc1c32 [Compound 9] | – | 1.3 | –
34.5 | 13.2 | 29 | 34.7 | 13.2 | – | – | – | – | CC(C)c1ccc2cc(C(F)(F)F)c(=O)c3c(N4CCC4)c(C=O)c(c1)c23 [Compound 5] | – | 0.7 | –
15.4 | 5.2 | 0.81 | 15.5 | 5.89 | 78 | – | 1.11 | – | Cc1c(N2CCCC2)c2c(=O)c(C(F)(F)F)cc3ccc(C(C)C)cc1c32 [Compound 11, 2-pyrrolidinylbenzazulen-3-one] | – | 1.2 | –
